Measured values reported in ChEMBL document CHEMBL1201862, “PubChem BioAssay data set” (2004).
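Following 48 hours of exposure in 96-well plates, responses at five concentrations were used to interpolate endpoints linearly. The concentration for 50% growth inhibition is given as GI50.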 The source made the active and inactive calls. Rule as the data show it: active = GI50 up to about 1.1 µM and inactive = higher.

Legend:
Experiment in all cases: NCI-60 cell line screen, 48 h
A549 = system: A549
CAKI-1 = system: CAKI-1
HCT-116 = system: HCT-116
HCT-15 = system: HCT-15
HL-60 = system: HL-60
HOP-92 = system: HOP-92
IGROV-1 = system: IGROV-1
Malme-3M = system: Malme-3M
NCI-H460 = system: NCI-H460
SF-268 = system: SF-268
SF-295 = system: SF-295
SK-MEL-28 = system: SK-MEL-28
SK-MEL-5 = system: SK-MEL-5
SK-OV-3 = system: SK-OV-3
SN12C = system: SN12C
U-251 = system: U-251
UACC-62 = system: UACC-62
MCF7 = system: MCF7
MDA-MB-231 = system: MDA-MB-231
NCI/ADR-RES = system: NCI/ADR-RES

Question: Which GI50 (A549) does the source give for c1ccc2c(c1)C1=NCCN1c1ccccc1-2 here?
Answer: 3.97 µM (inactive)

Question: What about the GI50 (CAKI-1) of the same compound?
Answer: 2.6 µM (inactive)

Question: And the GI50 (HCT-116)?
Answer: 1.23 µM (inactive)

Question: And the GI50 (HCT-15)?
Answer: 3.1 µM

Question: And the GI50 (HL-60)?
Answer: 2.42 µM (inactive)

Question: And the GI50 (HOP-92)?
Answer: 4.45 µM (inactive)

Question: And the GI50 (IGROV-1)?
Answer: 3.44 µM (inactive)

Question: What about the GI50 (Malme-3M) of the same compound?
Answer: 2.64 µM (inactive)

Question: What about the GI50 (NCI-H460) of the same compound?
Answer: 1.77 µM (inactive)

Question: And the GI50 (SF-268)?
Answer: 3.46 µM (inactive)

Question: And the GI50 (SF-295)?
Answer: 5.09 µM (inactive)

Question: What about the GI50 (SK-MEL-28) of the same compound?
Answer: 3.91 µM (inactive)

Question: What about the GI50 (SK-MEL-5) of the same compound?
Answer: 2.49 µM (inactive)

Question: What about the GI50 (SK-OV-3) of the same compound?
Answer: 4.9 µM (inactive)

Question: What about the GI50 (SN12C) of the same compound?
Answer: 2.45 µM (inactive)

Question: And the GI50 (U-251)?
Answer: 3.15 µM (inactive)

Question: And the GI50 (UACC-62)?
Answer: 3.37 µM (inactive)

Question: Which results are given for Cn1c2ccccc2c(=O)c2ccc(Cl)cc21?
Answer: GI50 (A549): 6.01 µM (inactive); GI50 (HCT-116): > 10 µM (inactive); GI50 (HCT-15): > 10 µM; GI50 (HL-60): 9.95 µM (inactive); GI50 (HOP-92): > 10 µM (inactive); GI50 (IGROV-1): > 10 µM (inactive); GI50 (MCF7): > 10 µM (inactive); GI50 (Malme-3M): > 10 µM (inactive); GI50 (SF-268): > 10 µM (inactive); GI50 (SF-295): > 10 µM (inactive); GI50 (SK-MEL-28): > 10 µM (inactive); GI50 (SK-MEL-5): > 10 µM (inactive); GI50 (SK-OV-3): 6.71 µM (inactive); GI50 (SN12C): > 10 µM (inactive); GI50 (UACC-62): > 10 µM (inactive)

Question: What does the source list for O=S(=O)(NC1CCCCC1)c1ccc2c(c1)OCCOCCOCCOCCO2?
Answer: GI50 (A549): > 100 µM (inactive); GI50 (CAKI-1): > 100 µM (inactive); GI50 (HCT-116): > 100 µM (inactive); GI50 (HCT-15): > 100 µM; GI50 (HL-60): > 100 µM (inactive); GI50 (IGROV-1): > 100 µM (inactive); GI50 (MCF7): > 100 µM (inactive); GI50 (MDA-MB-231): > 100 µM (inactive); GI50 (Malme-3M): > 100 µM (inactive); GI50 (NCI-H460): > 100 µM (inactive); GI50 (SF-268): > 100 µM (inactive); GI50 (SF-295): > 100 µM (inactive); GI50 (SK-MEL-28): > 100 µM (inactive); GI50 (SK-MEL-5): > 100 µM (inactive); GI50 (SK-OV-3): > 100 µM (inactive); GI50 (SN12C): > 100 µM (inactive); GI50 (UACC-62): > 100 µM (inactive)

Question: Which results are given for Ic1ncnc2c1ncn2C1CCCO1 (stereo not drawn)?
Answer: GI50 (A549): > 100 µM (inactive); GI50 (CAKI-1): > 100 µM (inactive); GI50 (HCT-116): > 100 µM (inactive); GI50 (HCT-15): > 100 µM; GI50 (HL-60): > 100 µM (inactive); GI50 (HOP-92): > 100 µM (inactive); GI50 (IGROV-1): > 100 µM (inactive); GI50 (Malme-3M): > 100 µM (inactive); GI50 (NCI-H460): > 100 µM (inactive); GI50 (SF-268): > 100 µM (inactive); GI50 (SF-295): > 100 µM (inactive); GI50 (SK-MEL-28): > 100 µM (inactive); GI50 (SK-MEL-5): > 100 µM (inactive); GI50 (SK-OV-3): > 100 µM (inactive); GI50 (SN12C): > 100 µM (inactive); GI50 (U-251): > 100 µM (inactive); GI50 (UACC-62): > 100 µM (inactive)

Question: Which GI50 (A549) does the source give for CCOc1cc(NC(C)=O)ccc1C(=O)NNS(=O)(=O)c1ccc(NC(C)=O)cc1 here?
Answer: 72.8 µM (inactive)

Question: And the GI50 (CAKI-1)?
Answer: 54.6 µM (inactive)

Question: What about the GI50 (HCT-116) of the same compound?
Answer: 44.1 µM (inactive)

Question: What about the GI50 (HCT-15) of the same compound?
Answer: 53.6 µM

Question: What about the GI50 (HL-60) of the same compound?
Answer: 22.8 µM (inactive)

Question: And the GI50 (HOP-92)?
Answer: 61.9 µM (inactive)

Question: What about the GI50 (IGROV-1) of the same compound?
Answer: 43.9 µM (inactive)

Question: And the GI50 (MCF7)?
Answer: 40.6 µM (inactive)

Question: And the GI50 (Malme-3M)?
Answer: 86.7 µM (inactive)

Question: What about the GI50 (NCI-H460) of the same compound?
Answer: 39.6 µM (inactive)

Question: What about the GI50 (NCI/ADR-RES) of the same compound?
Answer: 69.8 µM (inactive)

Question: And the GI50 (SF-268)?
Answer: 88.7 µM (inactive)

Question: What about the GI50 (SF-295) of the same compound?
Answer: 39.4 µM (inactive)

Question: What about the GI50 (SK-MEL-28) of the same compound?
Answer: 99.1 µM (inactive)

Question: And the GI50 (SK-MEL-5)?
Answer: 22.3 µM (inactive)

Question: And the GI50 (SK-OV-3)?
Answer: 50.9 µM (inactive)

Question: And the GI50 (SN12C)?
Answer: 46.5 µM (inactive)

Question: And the GI50 (UACC-62)?
Answer: 57.3 µM (inactive)

Question: How did the GI50 (A549) turn out when O=C1CCC2(c3ccc(Cl)cc3)Nc3ccncc3N12 (stereo not drawn) was run?
Answer: > 10 µM (inactive)

Question: What about the GI50 (HCT-116) of the same compound?
Answer: > 10 µM (inactive)

Question: What about the GI50 (HCT-15) of the same compound?
Answer: > 10 µM

Question: What about the GI50 (HL-60) of the same compound?
Answer: > 10 µM (inactive)

Question: And the GI50 (HOP-92)?
Answer: > 10 µM (inactive)

Question: And the GI50 (IGROV-1)?
Answer: > 10 µM (inactive)

Question: What about the GI50 (MDA-MB-231) of the same compound?
Answer: 0.00507 µM (active)

Question: And the GI50 (Malme-3M)?
Answer: > 10 µM (inactive)

Question: What about the GI50 (NCI-H460) of the same compound?
Answer: > 10 µM (inactive)

Question: What about the GI50 (NCI/ADR-RES) of the same compound?
Answer: > 10 µM (inactive)

Question: And the GI50 (SF-268)?
Answer: > 10 µM (inactive)

Question: What about the GI50 (SF-295) of the same compound?
Answer: > 10 µM (inactive)

Question: And the GI50 (SK-OV-3)?
Answer: 5.52 µM (inactive)

Question: What about the GI50 (SN12C) of the same compound?
Answer: > 10 µM (inactive)

Question: What about the GI50 (U-251) of the same compound?
Answer: > 10 µM (inactive)

Question: And the GI50 (UACC-62)?
Answer: > 10 µM (inactive)

Question: What does the source list for Clc1cc(-c2ccccc2)nc(Nc2nc3ccccc3[nH]2)n1?
Answer: GI50 (A549): > 100 µM (inactive); GI50 (CAKI-1): 2.14 µM (inactive); GI50 (HCT-116): 25.1 µM (inactive); GI50 (HCT-15): 6.95 µM; GI50 (HL-60): 0.832 µM (active); GI50 (HOP-92): 2.2 µM (inactive); GI50 (IGROV-1): 14.7 µM (inactive); GI50 (MDA-MB-231): 15 µM (inactive); GI50 (Malme-3M): 28.2 µM (inactive); GI50 (NCI-H460): 19 µM (inactive); GI50 (NCI/ADR-RES): 43.5 µM (inactive); GI50 (SF-268): 23.6 µM (inactive); GI50 (SF-295): 37.1 µM (inactive); GI50 (SK-MEL-5): 38.5 µM (inactive); GI50 (SK-OV-3): 64.7 µM (inactive); GI50 (SN12C): 28.2 µM (inactive); GI50 (U-251): 15.3 µM (inactive); GI50 (UACC-62): 17.7 µM (inactive)
